Laboratory results reported in patent US20100168228A1, “NOVEL CHEMOTHERAPEUTIC AGENTS AGAINST INFLAMMATION AND CANCER” (RELIANCE LIFE SCIENCES PVT. LTD., priority 2006, published 2010).

What was measured:
Format in all cases: cell-based, human
p65 = test: Nuclear translocation of p65 by flow cytometry, Jurkat
Description: FIG. 5: Effect of CAMVE on TNF or LPS induced nuclear translocation of p65. A. HeLa cells either untreated or pretreated with 15 μM CAMVE for 3 h at 37° C. were stimulated with 0.1 nM TNF and immunocytochemical analysis were performed as described in “Materials and Methods”. B. Jurkat (5×10^5 cells/ml) cells were pretreated with indicated concentrations of CAMVE for 3 h and then stimulated with 0.1 nM of TNF for 30 min or 100 ng/ml of SA-LPS (serum activated LPS) for 15 min. After these treatments, cells were washed twice with PBS and nuclei were isolated by incubating the cells with […] Pipes-Triton buffer for 30 min at 4° C. Nuclei were stained for p65 and analyzed using FACS. (i). Representative histogram overlay showing TNF or LPS stimulated (1), basal (2), CAMVE stimulated (3), p65 staining in the nucleus. (ii). Ordinates gives the Isotype-corrected MFI for various treatments.
The assay was performed as described previously (Blaecke, A., Yves, D., Herbault, N., Jeannin, P., Bonnefoy, J. V., Beck, A., Aubry, J. P. (2002) Cytometry 48, 71-79). Briefly after stimulation, cells were washed twice with PBS. Nucleus was prepared by incubating the cells with 200 ul Pipes-Triton buffer for 30 min at 4° C. […] After washing, the nuclei were incubated with secondary FITC conjugated goat anti-mouse antibody (Sigma) for additional 30 mins at 4° C. and analysed using FACS. […]

NF-κB = NF-κB activation assay, U937; conditions: U937, 15 μM 3 h, 0.1 nM TNF 30 min
Description: FIG. 4: Effect of CAMVE on NF-κB activation in different cell lines. A. HeLa, MCF-7, U937, were incubated at 37° C. for 3 h with 15 μM dose of CAMVE and then stimulated with 0.1 nM TNF for 30 min. After these treatments, nuclear extracts were prepared and assayed for NF-κB using BD Transfactor ELISA method. B. RAW 264.7 cells pretreated with indicated doses of CAMVE were stimulated with 100 ng/ml LPS for 30 min and assayed for NF-κB activation.
Cell pellet was resuspended in lysis buffer (10 mM HEPES, pH 7.9, 1.5 mM MgCl2, 10 mM KCl, 1 mM PMSF, 1 mMDTT, 0.5% NP 40, 0.1 mM EGTA and 0.1 mM EDTA) and allowed to swell on ice for 15 min, followed by centrifugation at 3300×g for 20 min. The cell pellet was resuspended in a volume of lysis buffer equal to the cell pellet volume. The cell suspension was slowly drawn down into a syringe and ejected the content in a single stroke. Disrupted cells were incubated for 15 min on ice, and the disrupted cell suspension was centrifuged at 10,000×g for 20 min at 4° C. […]
The assay was performed by using wells coated with oligonucleotides having the consensus DNA binding sites for the specific transcription factors. […] Bound transcription factor was detected by a specific Primary Antibody. […] After addition of the substrate, the Absorbance was recorded at 655 nm.

MCF-7 = test: Apoptosis by PARP cleavage (FACS), MCF-7; conditions: MCF-7, 100 nM, 24 h
Description: FIG. 19: Effect of compound 27 on the apoptosis in cells with different p53 status. Extent of apoptosis in different cells was measured by staining the cells for PARP cleavage followed by FACS analysis. Cells were treated with 100 nM of the compound for 24 h and the level of apoptosis was seen. Percentage apoptotic populations are represented as the M2 gated population.
PARP Cleavage Assay using Flow Cytometry: Extent of PARP cleavage is determined using polyclonal antibody specifically recognizing the 85 kDa fragment of cleaved PARP (NSB 699 Novus Biologicals) and can be used as a marker for detecting apoptotic cells. Treated cells were fixed with 70% chilled ethanol and permeabilized for 30 min at RT (PBS+0.5% BSA+0.02% NaN3+0.5% saponin) and stained with anti PARP-FITC (10 μl/10^6 cells) for one hour at RT. Cells were washed twice with wash buffer (PBS+1% heat inactivated FBS) and analysed using FACS.

caspase 3 = test: Caspase 3 activity assay, Jurkat lysates; conditions: 16 and 24 h exposure
Description: FIG. 14: Induction of Caspase 3 by compound 27. Jurkat cells were treated with indicated concentrations of the compound for 16 and 24 h and harvested in lysis buffer. Cellular lysates were incubated with Ac-DEVD-pNA as described in the “Materials and Methods” for 2 h at 37° C. Absorbance was recorded at 405 nm.
Caspase 3 activity assay: To evaluate caspase 3 activity, cell lysates were prepared after their respective treatments with the compounds. 200 μg of the cell lysates were incubated with 50 μM caspase 3 substrate […] in 100 μl reaction buffer (1% NP-40, […] tris-HCl, pH7.5, 137 mM NaCl, and 10% glycerol) and incubated for 2 h at 37° C. The release of chromophore pNA was monitored spectrophotometrically at 405 nm.

Row | SMILES | TNF or LPS mediated p65 translocation (p65; Jurkat nuclei, pretreated 3 h, 0.1 nM TNF or 100 ng/ml SA-LPS) | basal nuclear p65 staining (p65; Jurkat, CAMVE alone) | TNF-induced NF-κB activation (NF-κB) | level of apoptosis (PARP cleavage) (MCF-7) | caspase 3 activity (DVED-pNA cleavage) (caspase 3)
1 | COC(=O)c1ccc(OC(=O)/C=C/c2ccc(O)c(O)c2)c(OC)c1 [compound 1, Methyl 4-{[(2E)-3-(3,4-dihydroxyphenyl)prop-2-enoyl]oxy}-3-methoxybenzoate] | blocked with CAMVE pretreatments | not altered by incubation with CAMVE alone | blocks TNF-induced NF-κB activation | – | –
2 | COc1cc([C@@H]2Oc3c(OC)cc(/C=C/C(=O)O)cc3[C@H]2C(=O)O)ccc1O [compound 27, 5-[(E)-2-carboxyvinyl]-2β-(4-hydroxy-3-methoxyphenyl)-7-methoxy-2,3-dihydro-1-benzofuran-3α-carboxylic acid] | – | – | – | comparable to that of Jurkat cell line | dose dependent increase in DVED-pNA cleavage
